Source: patent US20220396580A1, “TRICYCLIC DILACTONE COMPOUND, AND PRODUCTION METHOD AND USE THEREOF” (SEOUL NATIONAL UNIVERSITY R&DB FOUNDATION, priority 2020, published 2022)

Legend:
[1] = target: T1, human A131-42 monomer (Homo sapiens, UniProt P05067); test: Inhibition of amyloid-beta aggregation (thioflavine-T fluorescence); type: biochemical; settings: 25 μM amyloid-beta, 1 mM rhizolutin, 37° C., 120 hours
T1 construct: UniProt KB-P05067, a.a; 672 to 713
Method: An amyloid-beta solution was prepared by dissolving human A131-42 monomer (UniProt KB-P05067, a.a. 672 to 713) in DMSO to have a concentration of 10 mM. Then, the amyloid-beta solution was diluted with distilled water to prepare a solution having a concentration of 100 μM. Meanwhile, thioflavine-T (Sigma-Aldrich) was dissolved in 50 mM glycin buffer (pH 8.5) to have a concentration of 5 mM. Then, the resulting solution was diluted with 50 mM glycin buffer (pH 8.5) to have a concentration of 5 μM, and stored light-blocked in a dark room. To verify the inhibitory activity of rhizolutin on the amyloid-beta aggregation, the amyloid-beta solution was added to 1.5 mL microtubes to a concentration of 25 μM, and rhizolutin was added thereto at a concentration of 1 mM, followed by incubation at 37° C. for 120 hours. […] After a reaction was allowed for 5 minutes at room temperature in the darkroom, fluorescence was measured at an excitation wavelength of 450 nm and an emission wavelength of 485 nm by using a multi-mode microplate reader. Based on the fluorescence intensity of the group (control group) in which only amyloid-beta was treated and aggregated for 120 hours, the fluorescence intensity (%) of each group was calculated, and results are shown in FIG. 3A (one-way ANOVA test followed by Bonferroni's post-hoc comparison test, mean±SEM, ***: p<0.001).

[2] = system: Tau protein; test: Disaggregation of tau aggregates (thioflavin T fluorescence); type: biochemical; settings: 1 mM rhizolutin vs 20 mM EPPS
Method: Meanwhile, the tau protein was added to a 1.5 mL microtube at a concentration of 0.5 mg/mL, and incubated at 37° C. for 48 hours. Then, rhizolutin was added at a concentration of 1 mM, and incubated at 37° C. for 72 hours. To compare the efficacy, EPPS was added at a concentration of 20 mM, and incubated under the same conditions.
(§1) Thioflavin T was added to the reaction, and the fluorescence intensity was measured at an excitation wavelength of 450 nm and an emission wavelength of 485 nm. As a negative control group, a vehicle without the tau protein and rhizolutin was used.
(§2) Based on the fluorescence intensity of the group in which only the tau protein was treated (positive control group), the fluorescence intensity (%) of each group was calculated, and results are shown in FIGS. 6A and 6B (mean±SEM, *: p<0.01, ***: p<0.001).

[3] = system: Tau protein; test: Inhibition of formation of tau aggregates (thioflavin T fluorescence); type: biochemical; settings: 1 mM rhizolutin vs 20 mM EPPS
Method: Tau protein was prepared at a concentration of 1 mg/mL, and as described in Example 2-3, the prepared tau protein was added to a 1.5 mL microtube at a concentration of 0.5 mg/mL, and 1 mM of rhizolutin and 20 mM of EPPS were added thereto, followed by incubation at 37° C. for 120 hours.
as §1, §2

[4] = target: T1, human A131-42 monomer; test: Disaggregation of amyloid-beta aggregates (thioflavine-T fluorescence); type: biochemical
Method: An amyloid-beta solution was prepared by dissolving human A131-42 monomer (UniProt KB-P05067, a.a. 672 to 713) in DMSO to have a concentration of 10 mM. Then, the amyloid-beta solution was diluted with distilled water to prepare a solution having a concentration of 100 μM. Meanwhile, thioflavine-T (Sigma-Aldrich) was dissolved in 50 mM glycin buffer (pH 8.5) to have a concentration of 5 mM. Then, the resulting solution was diluted with 50 mM glycin buffer (pH 8.5) to have a concentration of 5 μM, and stored light-blocked in a dark room. In addition, to verify the activity of rhizolutin on disaggregation of the amyloid-beta aggregation, the amyloid-beta solution was added to a 1.5 mL microtube to a concentration of 25 μM and incubated at 37° C. for 72 hours. Then, 1 mM of rhizolutin was added to each microtube, followed by incubation at 37° C. for 72 hours. […] Then, fluorescence intensity was measured at an excitation wavelength of 450 nm and an emission wavelength of 485 nm by using a multi-mode microplate reader. Based on the fluorescence intensity of the group (control group) in which only amyloid-beta was treated and aggregated for 72 hours, the fluorescence intensity (%) of each group was calculated, and results are shown in FIG. 3B (mean±SEM, *: p<0.05, ***: p<0.001).

[5] = system: APP/PS1 transgenic mice; test: Amyloid-beta aggregates in brain tissue of APP/PS1 transgenic mice (thioflavine S / GFAP staining); type: in vivo, mouse; settings: 8 mg/kg/day intraperitoneal for 3 weeks
Method: First, APP/PS1 transgenic mice (7.5-month-old, male, Jackson Laboratory, 9 to 10 mice/group) to which the genes of AD patients were injected were prepared. In the APP/PS1 transgenic mice, human amyloid-beta is expressed at a high level, and Alzheimer-like plaques are formed in the brain.
The prepared mice were intraperitoneally administered daily with rhizolutin at a dose of 8 mg/body weight (kg)/day for 3 weeks. As a negative control group, the prepared mice were intraperitoneally administered with a vehicle only.
Afterwards, the mouse brain was removed, and changes in amyloid-beta aggregates (in the form of oligomer or fibril) as AD biomarkers in the brain tissue were measured.

[6] = system: HT-22 mouse hippocampal neuronal cells and BV2 microglial cells; test: Immunoblotting of cleaved caspase-3 and Bcl-2 in cells treated with amyloid-beta aggregates; type: cell-based; settings: amyloid-beta aggregates and 20 μM rhizolutin together, 24 hours
From the text: To verify the inhibitory activity of rhizolutin on the neurotoxicity of the amyloid-beta aggregates, changes in apoptosis-related biomarkers after exposing neurons to the neurotoxicity of the amyloid-beta aggregates were observed. Here, cleaved caspase-3, which is an apoptosis-inducing factor, and B-cell lymphoma 2 (Bcl-2), which inhibits apoptosis, were used as the biomarkers.
HT-22 mouse hippocampal neuronal cells and BV2 microglial cells were inoculated into a plate in a predetermined number. To each of the HT-22 cell line and the BV2 cell line, an amyloid-beta solution prepared in the same manner as in Example 2-2 was added at a concentration of […], followed by incubation at 37° C. for 24 hours. Afterwards, 20 μM of rhizolutin was added to each microtube, followed by incubation with amyloid-beta in a final concentration of 20 μM at 37° C. for 24 hours. As a negative control group, a group without rhizolutin and the amyloid-beta protein was used.
Cleaved caspase-3 and Bcl-2, which are apoptosis-related biomarkers, were identified by immunoblotting, and images thereof are shown in FIG. 5A.

T1 sequence (P05067 672-713): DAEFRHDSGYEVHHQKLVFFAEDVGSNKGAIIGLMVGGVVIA

- formation of amyloid-beta aggregates (oligomer or fibril) [1]: significantly inhibited
- amyloid-beta disaggregation activity compared with EPPS ([4]; 1 mM rhizolutin vs 20 mM EPPS, same conditions): better than that of EPPS
Compound: CC[C@H]1C[C@@H]2/C(C)=C/[C@@H]3OC(=O)C[C@@H](O)C[C@H]3/C=C/C(C)=C\[C@H]2C(=O)O1 [rhizolutin]
- disaggregating tau aggregates compared with EPPS [2]: better effects
- inhibiting formation of tau aggregates compared with EPPS [3]: better effects
- disaggregation of amyloid-beta aggregates (oligomer or fibril) ([4]; 25 μM amyloid-beta pre-aggregated 72 hours, then 1 mM rhizolutin 72 hours, 37° C.): disaggregated the amyloid-beta aggregates
- GFAP, biomarker of neuroinflammation (astrocytosis around the plaques) ([5]; brain tissue): also decreased
- number of amyloid-beta plaques in the hippocampus of the brain ([5]; thioflavine S, vs negative control group): decrease in the number of amyloid-beta plaques
- expression of Bcl-2 [6]: the expression of Bcl-2 increased
- expression of cleaved caspase-3 [6]: the expression of cleaved caspase-3 decreased
